According to BindingDB's records for doi:10.7270/Q2S180X7 (Vanderbilt Screening Center For Gpcrs, Ion Channels and …, 2009):

Molecular target: T1, Muscarinic acetylcholine receptor M5 (Homo sapiens, UniProt P08912)
T1 sequence (P08912 whole entry): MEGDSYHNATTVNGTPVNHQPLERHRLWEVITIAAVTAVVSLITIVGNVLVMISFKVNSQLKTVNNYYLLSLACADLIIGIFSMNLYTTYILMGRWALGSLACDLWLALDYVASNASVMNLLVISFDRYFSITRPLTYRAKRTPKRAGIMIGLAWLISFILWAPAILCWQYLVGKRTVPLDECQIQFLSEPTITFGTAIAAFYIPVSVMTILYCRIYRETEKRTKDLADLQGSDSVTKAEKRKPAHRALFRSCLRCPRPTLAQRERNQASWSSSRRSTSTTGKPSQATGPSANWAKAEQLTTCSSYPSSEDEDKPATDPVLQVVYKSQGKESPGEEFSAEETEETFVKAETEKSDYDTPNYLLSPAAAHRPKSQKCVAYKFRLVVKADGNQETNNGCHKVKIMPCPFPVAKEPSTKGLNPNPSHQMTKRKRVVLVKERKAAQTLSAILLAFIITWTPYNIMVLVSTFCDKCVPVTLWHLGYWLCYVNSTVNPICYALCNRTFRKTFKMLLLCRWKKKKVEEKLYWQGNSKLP
Experiment: binding competition at muscarinic M5 – biochemical, [3H]N-methylscopolamine (AID 2192)
Conditions: inactive by the depositor's call

COc1ccc(CN2C(=O)C(=O)c3cc(OC(F)(F)F)ccc32)cc1 [VU0238429]
EC50: 1.71 µM
